Among the data in article PMC10537604, “Development and Assessment of 1,5–Diarylpyrazole/Oxime Hybrids Targeting EGFR and JNK–2 as Antiproliferative Agents: A Comprehensive Study through Synthesis, Molecular Docking, and Evaluation” (Molecules, 2023) are inhibition, melting point and IC50 values, retold here.

One may read the inhibition as the drop in the measured response relative to a control, in per cent. For orientation: melting point means the temperature, or range, at which the solid turns liquid. One may read the IC50 as the concentration at which inhibition is half-maximal.

The structures appear in SMILES notation.

In data set [1] the test system is human hepatocellular carcinoma cell line HepG2. Put plainly: WST-8 antiproliferative assay, HepG2. Type of data set: cell-based. The note with it: HepG2, 100 µM, WST-8 assay, read-out: Growth Inhibition (GI%) HepG2. How it is done:
(§1) Compounds 7a–j, 8a–j, 9a–c, and 10a–c were evaluated for in vitro anticancer activities against five different cancer cell lines, namely, human colorectal adenocarcinoma cell lines DLD-1, human cervical cancer cell line Hela, human pancreatic cancer cell line SUIT-2, human myelogenous leukemia cell line K562, and human hepatocellular carcinoma cell line HepG2 using WST-8 assay at concentrations of 100 µM to investigate the growth inhibition percent (GI%) of each compound using daunorubicin as a reference drug. […]. […] So, as a conclusion on the SAR study of those compounds as antiproliferative agents, the oxime moiety potentiated the anticancer activity and electron donating groups on R1 and R2 played an important role on this activity. Moreover, the sulfamoyl moiety on R3 seems to play a potential role in the activity of the prepared compounds (Table 1).
(§2) All selected compounds and daunorubicin were recorded as the minimum concentration required to inhibit half cell growth (IC50) and the results are listed in Table 2.
(§3) Evaluation of anticancer activity was performed according to the standard water-soluble tetrazolium-8 (WST-8) assay at the Faculty of Engineering, Yamagata University, Yonezawa, Japan, using an MTP-310 absorbance microplate reader. The EGFR inhibitory assay was carried out at the Faculty of Engineering, Yamagata University, Yonezawa, Japan, according to the protocol enzyme linked immunosorbent assay (ELISA) kits (Douset sandwich ELISA test, recombinant mouse EGFR). The JNK-2 inhibitory assay was performed at the Faculty of Engineering, Yamagata University, Yonezawa, Japan, according to the protocol of enzyme-linked immunosorbent assay (ELISA), the assay was carried out using the JNK-2 kit (Simple Step ELISA, pT183/Y185, Abcam Company, Cambridge, CB2 0AX, UK). Apoptosis and cell cycle analysis was performed at Faculty of medicine, Yamagata University, Yamagata, Japan, using BD FACS melody. Molecular docking was performed at the Nano Medical Engineering Laboratory, RIKEN Cluster for Pioneering Researchers, RIEKN, Japan, using ICM-Pro 3.8 software (MolSoft L.L.C., San Diego, CA, USA).
(§4) According to the standard water-soluble tetrazolium-8 (WST-8) assay, the current synthesized compounds have been tested for their anticancer activities against different five cancer cell lines; DLD-1, Hela, K562, SUIT-2, and HepG2 and daunorubicin was used as reference drug by the WST-8 assay. The five cells were maintained in a suspension culture, (Dulbecco’s modified eagle medium (DMEM) for SUIT-2, Hela, and HepG2 or PRIM for K562 and DLD), supplemented with 5% FBS (Fetal Bovine Serum) containing 1% of a penicillin-streptomycin (1:1) mixture. A 100 μL aliquot of cells (10,000 cells/mL) was added to a 96 well plate and incubated for 24 h at 37 °C in a humidified incubator containing 5% CO2 in the air. After 24 h, a 10 μL aliquot of test compound (concentrations varying in the range of 10–150 µM) was added to each of the 96 wells and incubated for 24 h. Then A 10 μL WST-8 solution (mixture of WST-8 and 1-methoxy PMS) was added to each well and the incubation continued for 3 h. The visible absorbance at 450 nm and 630 nm as the reference wavelength of each well was quantified using an MTP-310 absorbance microplate reader. Daunorubicin was used as a positive control. The results of cytotoxicity were recorded as growth inhibition percentages and as IC50 values.
(Formazan colour is commonly taken as a measure of viable cells.)

Data set [2] has as its system human colorectal adenocarcinoma cell line DLD-1. Put plainly: WST-8 antiproliferative assay, DLD-1. The data set is classed as cell-based. The note with it: DLD-1, 100 µM, WST-8 assay, read-out: Growth Inhibition (GI%) DLD-1. On the procedure: as §1, §2, §3, §4
Data set [3] has as its system human myelogenous leukemia cell line K562. The data set can be described thus: WST-8 antiproliferative assay, K562. Type of data set: cell-based. The note with it: Homo sapiens, K562, WST-8 assay; for inhibition at 100 µM: read-out: Growth Inhibition (GI%) K562. On the procedure: as §1, §2, §3
as §4, with “After 24 h, a 10 μL aliquot of test compound (concentrations varying in the range of 10–150 µM) was added to each of the 96 wells and incubated for 24 h.” left out

The test system of data set [4] is human cervical cancer cell line Hela. The data set can be described thus: WST-8 antiproliferative assay, Hela. Type of data set: cell-based. As to conditions: WST-8 assay; for inhibition at 100 µM: read-out: Growth Inhibition (GI%) Hela. On the procedure: as §1, §2, §3
as §4, with “After 24 h, a 10 μL aliquot of test compound (concentrations varying in the range of 10–150 µM) was added to each of the 96 wells and incubated for 24 h.” left out

Data set [5] concerns human pancreatic cancer cell line SUIT-2. The data set can be described thus: WST-8 antiproliferative assay, SUIT-2. Type of data set: cell-based. As to conditions: SUIT-2, 100 µM, WST-8 assay, read-out: Growth Inhibition (GI%) SUIT-2. On the procedure:
as §1, §2, §3, §4

The test system is the same in data set [6]. Put plainly: WST-8 antiproliferative assay, SUIT-2. The note with it: WST-8 assay, six concentrations 1-100 µM. Type of data set: cell-based.

Take `COc1cc(C(C)=O)ccc1OC(=O)c1cc(-c2ccccc2)n(-c2ccccc2)n1` [Compound 7a, 4–Acetyl–2–methoxyphenyl 1,5–diphenyl–1H–pyrazole–3–carboxylate]: the melting point lay within 98 to 100 °C. Moreover, the inhibition at 100 µM in data set [1] was determined as 5%. Besides, the inhibition at 100 µM in data set [2] stood at 0%. Moreover, in data set [3], the inhibition at 100 µM is 0%. The inhibition at 100 µM in data set [4] amounted to 55%. The inhibition at 100 µM in data set [5] was 101%.
`COc1ccc(-c2cc(C(=O)Oc3ccc(C(C)=O)cc3OC)nn2-c2ccccc2)cc1` [Compound 7c, 4–Acetyl–2–methoxyphenyl–5–(4–methoxyphenyl) 1–phenyl–1H–pyrazole–3–carboxylate]: the melting point lay within 69 to 71 °C. For the same compound, the inhibition at 100 µM in data set [1] is 0%. Moreover, the inhibition at 100 µM in data set [2] worked out at 0%. In data set [3], the inhibition at 100 µM was 48%. Further, the inhibition at 100 µM in data set [4] was found to be 52%. Moreover, the inhibition at 100 µM in data set [5] came to 68%.
`COc1ccc(-c2cc(C(=O)Oc3ccc(C(C)=O)cc3OC)nn2-c2ccccc2)cc1OC` [Compound 7e, 4–Acetyl–2–methoxyphenyl–5–(3,4–dimethoxyphenyl) 1–phenyl–1H–pyrazole–3–carboxylate] registered a melting point of 74 to 76 °C. In data set [1], the inhibition at 100 µM was 14%. Further, the inhibition at 100 µM in data set [2] amounted to 59.4%. Further, the inhibition at 100 µM in data set [3] amounted to 0%. Besides, the inhibition at 100 µM in data set [4] was determined as 73%. For the same compound, the inhibition at 100 µM in data set [5] stood at 101%.
On to `COc1cc(C(C)=O)ccc1OC(=O)c1cc(-c2ccccc2)n(-c2ccc(S(N)(=O)=O)cc2)n1` [Compound 7f, 4–Acetyl–2–methoxyphenyl–5–phenyl 1–(4–sulfamoylphenyl)–1H–pyrazole–3–carboxylate], for which the melting point fell in the range of 69 to 72 °C. The inhibition at 100 µM in data set [1] is 10%. Also, the inhibition at 100 µM in data set [2] came out at 18.6%. Moreover, the inhibition at 100 µM in data set [3] was found to be 24%. Further, the inhibition at 100 µM in data set [4] stood at 16%. Further, the inhibition at 100 µM in data set [5] amounted to 75%.
The compound `COc1ccc(-c2cc(C(=O)Oc3ccc(C(C)=O)cc3OC)nn2-c2ccc(S(N)(=O)=O)cc2)cc1` [Compound 7h, 4–Acetyl–2–methoxyphenyl 5–(4–methoxyphenyl) 1–(4–sulfamoylphenyl)–1H–pyrazole–3–carboxylate] came in with a melting point of 80 to 83 °C. Moreover, the inhibition at 100 µM in data set [1] is 0%. The inhibition at 100 µM in data set [2] is 0%. Further, the inhibition at 100 µM in data set [3] is 0%. Moreover, the inhibition at 100 µM in data set [4] was 0%. Also, the inhibition at 100 µM in data set [5] was 73%.
For `COc1cc(C(C)=O)ccc1OC(=O)c1cc(-c2ccc(Cl)cc2)n(-c2ccc(S(N)(=O)=O)cc2)n1` [Compound 7i, 4–Acetyl–2–methoxyphenyl–5–(4–chlorophenyl) 1–(4–sulfamoylphenyl)–1H–pyrazole–3–carboxylate], the melting point lay within 71 to 74 °C. The inhibition at 100 µM in data set [1] worked out at 63%. For the same compound, the inhibition at 100 µM in data set [2] is 46%. For the same compound, the inhibition at 100 µM in data set [3] was 101%. Further, the IC50 in data set [3] (six concentrations 1-100 µM, read-out: IC50 K562) was 93 µM. In data set [6], this compound registered an IC50 of 92 µM. For the same compound, the inhibition at 100 µM in data set [4] came to 101%. Also, in data set [4] (six concentrations 1-100 µM, read-out: IC50 Hela), the IC50 is 25 µM. Moreover, the inhibition at 100 µM in data set [5] was determined as 101%.
Regarding `COc1ccc(-c2cc(C(=O)Oc3ccc(C(C)=O)cc3OC)nn2-c2ccc(S(N)(=O)=O)cc2)cc1OC` [Compound 7j, 4–Acetyl–2–methoxyphenyl–5–(3,4–dimethoxyphenyl) 1–(4–sulfamoylphenyl)–1H–pyrazole–3–carboxylate], the melting point lay in the range of 75 to 78 °C. Besides, the inhibition at 100 µM in data set [1] amounted to 0%. In addition, the inhibition at 100 µM in data set [2] is 0.1%. Besides, the inhibition at 100 µM in data set [3] stood at 11%. For the same compound, in data set [4], the inhibition at 100 µM turned out to be 10%. In addition, the inhibition at 100 µM in data set [5] turned out to be 81%.
As to `COc1ccc(-c2cc(C(=O)Oc3ccc(/C(C)=N/O)cc3OC)nn2-c2ccccc2)cc1` [Compound 8c, (E)–4–(1–(Hydroxyimino)ethyl)–2–methoxyphenyl 5–(4–methoxyphenyl) 1–phenyl–1H–pyrazole–3–carboxylate], the melting point lay in the range of 132 to 135 °C. For the same compound, in data set [1], the inhibition at 100 µM was determined as 51%. Moreover, the inhibition at 100 µM in data set [2] turned out to be 0%. Also, in data set [3], the inhibition at 100 µM amounted to 67%. In addition, the inhibition at 100 µM in data set [4] turned out to be 78%. In addition, the inhibition at 100 µM in data set [5] came to 61%.
On to `COc1ccc(-c2cc(C(=O)Oc3ccc(/C(C)=N/O)cc3OC)nn2-c2ccc(S(N)(=O)=O)cc2)cc1OC` [Compound 8j, (E)–4–(1–(Hydroxyimino)ethyl)–2–methoxyphenyl 5–(3,4–dimethoxyphenyl)–1–(4–sulfamoylphenyl)–1H–pyrazole–3–carboxylate], for which the melting point was in the range of 129 to 131 °C. In addition, the inhibition at 100 µM in data set [1] came to 60%. The inhibition at 100 µM in data set [2] was 9.6%. Also, the inhibition at 100 µM in data set [3] was 34%. Besides, the inhibition at 100 µM in data set [4] is 53%. Moreover, the inhibition at 100 µM in data set [5] was determined as 79%.
In turn, `CC(=O)c1ccc(NC(=O)c2cc(-c3ccccc3)n(-c3ccc(S(N)(=O)=O)cc3)n2)cc1` [Compound 9a, N–(4–Acetylphenyl)–5–phenyl–1–(4–sulfamoylphenyl)–1H–pyrazole–3–carboxamide] showed a melting point of 81 to 83 °C. For the same compound, the inhibition at 100 µM in data set [1] stood at 36%. Moreover, the inhibition at 100 µM in data set [2] was determined as 60.7%. In data set [3], the inhibition at 100 µM came out at 66%. The inhibition at 100 µM in data set [4] turned out to be 9%. In addition, the inhibition at 100 µM in data set [5] amounted to 60%.
`COc1ccc(-c2cc(C(=O)Nc3ccc(C(C)=O)cc3)nn2-c2ccc(S(N)(=O)=O)cc2)cc1` [Compound 9b, N–(4–Acetylphenyl)–5–(4–methoxyphenyl)–1–(4–sulfamoylphenyl)–1H–pyrazole–3–carboxamide] returned a melting point of 74 to 76 °C. In addition, the inhibition at 100 µM in data set [1] was 19%. Further, in data set [2], the inhibition at 100 µM stood at 42.1%. The inhibition at 100 µM in data set [3] was 31%. Also, the inhibition at 100 µM in data set [4] was 0%. In data set [5], the inhibition at 100 µM was determined as 45%.
For `COc1ccc(-c2cc(C(=O)Nc3ccc(C(C)=O)cc3)nn2-c2ccc(S(N)(=O)=O)cc2)cc1OC` [Compound 9c, N–(4–Acetylphenyl)–5–(3,4–dimethoxyphenyl)–1–(4–sulfamoylphenyl)–1H–pyrazole–3–carboxamide], the melting point was in the range of 81 to 83 °C. Moreover, the inhibition at 100 µM in data set [1] was 22%. Moreover, the inhibition at 100 µM in data set [2] worked out at 16.8%. Further, the inhibition at 100 µM in data set [3] is 57%. In addition, in data set [4], the inhibition at 100 µM is 9%. Further, the inhibition at 100 µM in data set [5] worked out at 42%.
